In assay [1] the target is Cyclin-dependent kinase 5/CDK5 activator 1 (Homo sapiens, UniProt Q00535). Nature of the assay: Inhibition of human recombinant CDK5/p25 using histone H1 substrate and ATP. It is filed as protein-complex assay.
The target in assay [2] is Glycogen synthase kinase-3 (Sus scrofa, UniProt B2LUN4+I6LNT8). Nature of the assay: Inhibition of porcine brain GSK3alpha/beta using GS-1 substrate and ATP.
Assay [3] is described as follows: Selectivity index, ratio of IC50 for human recombinant CDK5/p25 to porcine brain GSK3alpha/beta.
Assay [4] has as its target Dual specificity tyrosine-phosphorylation-regulated kinase 1A (Homo sapiens, UniProt Q13627). The assay is described as follows: Inhibition of human recombinant GST-tagged DYRK1A expressed in Escherichia coli.
In assay [5] the test system is MDA-MB-231.
In assay [6] the test system is Caco-2.
The subject of assay [7] is PC-3.
Assay [8] has as its system HCT-116.
In assay [9] the test system is NCI-H727.
The subject of assay [10] is Caco-2. Nature of the assay: cells. Conditions: Homo sapiens, Caco-2, 48 h; call rule not given here.
Assay [11] has as its system HCT-116. Nature of the assay: cells. Conditions: Homo sapiens, HCT-116, 48 h.
Assay [12] deals with NCI-H727. Nature of the assay: cells. The note with it: Homo sapiens, NCI-H727, 48 h.
The next assay is described as follows: cells. Conditions: Homo sapiens, Huh-7, 48 h.
The test system of assay [13] is PC-3. Nature of the assay: cells. Conditions: Homo sapiens, PC-3, 48 h.
Assay [14] deals with MDA-MB-231. The assay is described as follows: cells. Conditions: Homo sapiens, MDA-MB-231, 48 h.

Sequence of Cyclin-dependent kinase 5/CDK5 activator 1 (Q00535 whole entry): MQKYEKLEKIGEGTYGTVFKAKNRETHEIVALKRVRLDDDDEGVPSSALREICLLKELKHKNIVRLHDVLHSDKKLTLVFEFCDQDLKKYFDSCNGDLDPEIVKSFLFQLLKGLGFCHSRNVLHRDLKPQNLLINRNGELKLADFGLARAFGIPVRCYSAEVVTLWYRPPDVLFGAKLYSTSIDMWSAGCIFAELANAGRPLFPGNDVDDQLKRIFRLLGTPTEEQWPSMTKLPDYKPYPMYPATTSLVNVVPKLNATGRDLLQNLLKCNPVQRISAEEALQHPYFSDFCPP
Sequence of Cyclin-dependent kinase 5/CDK5 activator 1 (Q15078 whole entry, further chain): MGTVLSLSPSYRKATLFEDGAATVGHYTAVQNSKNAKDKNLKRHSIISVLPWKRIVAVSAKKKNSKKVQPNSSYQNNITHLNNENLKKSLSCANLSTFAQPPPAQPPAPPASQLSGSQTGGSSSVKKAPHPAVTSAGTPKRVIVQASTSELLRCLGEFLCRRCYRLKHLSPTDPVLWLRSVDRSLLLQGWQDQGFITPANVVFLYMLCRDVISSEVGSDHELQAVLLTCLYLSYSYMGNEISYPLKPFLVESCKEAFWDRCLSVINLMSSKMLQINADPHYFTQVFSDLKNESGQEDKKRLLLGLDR

By IC50 is commonly meant the concentration needed to halve the response being measured. Turning to `O=C1CCN2C(=O)c3cccc(NC(=O)Nc4ccccn4)c3C2C1` (configuration not stated), the IC50 was found to be 1600 nM in assay [1] and 230 nM in assay [2].

With `Cn1ccc(NC(=O)Nc2cccc3c2C2CC4(CCN2C3=O)SCCS4)n1` (configuration not stated), the Ratio IC50 in assay [3] was > 5.2. Also, in assay [2], the IC50 came out at 1900 nM.

As for `CO[C@@H]1CCN2C(=O)c3cccc(NC(=O)Nc4ccccn4)c3[C@@H]2C1` (relative stereo), in assay [3], the Ratio IC50 is 6.8. Also, the IC50 is 550 nM in assay [1], > 10000 nM in [4] and 81 nM in assay [2].

With `CO[C@@H]1CCN2C(=O)c3cccc(NC(=O)Nc4cnccn4)c3[C@@H]2C1` (relative stereo), in assay [3], the Ratio IC50 was found to be 2.4. For the same compound, the IC50 is 480 nM in [1], > 10000 nM in [4] and 200 nM in [2].

As for `COc1cc(NC(=O)Nc2cccc3c2C2CC4(CCN2C3=O)SCCS4)nc2ccccc12` (configuration not stated), the Ratio IC50 in assay [3] was > 2.5. This compound also displayed an IC50 in [2] of 4000 nM.

Consider `COc1cc(NC(=O)Nc2cccc3c2C2CC4(CCN2C3=O)OCCO4)nc2ccccc12` (configuration not stated), for which, in [3], the Ratio IC50 is > 10. This compound showed an IC50 in assay [2] of 1000 nM.

In the case of `O=C(Nc1ccc(Br)cn1)Nc1cccc2c1C1CC3(CCN1C2=O)SCCS3` (configuration not stated), the Ratio IC50 in assay [3] stood at 107. The IC50 in assay [2] turned out to be 68 nM.

For `CO[C@@H]1CCN2C(=O)c3cccc(NC(=O)Nc4ncccc4C)c3[C@@H]2C1` (relative stereo), the IC50 is 1100 nM in assay [1] and > 10000 nM in assay [4].

For `O=C1CCN2C(=O)c3cccc(NC(=O)Nc4cnccn4)c3C2C1` (configuration not stated), the IC50 in assay [1] stood at 3600 nM; in assay [2] it was 1200 nM.

For `COc1cc(NC(=O)Nc2cccc3c2[C@@H]2C[C@H](OC)CCN2C3=O)nc2ccccc12` (relative stereo), in [3], the Ratio IC50 was 47.5. Further, the results for the IC50 in assay [1], in [4] and in assay [2] were 8500 nM, > 10000 nM and 180 nM, respectively.

As for `COc1cc(NC(=O)Nc2cccc3c2[C@@H]2C[C@H](O)CCN2C3=O)nc2ccccc12` (relative stereo), the IC50 result was “Not Active” in the assay on MDA-MB-231 [5]; “Not Active” with Caco-2 [6]; “Not Active” in the assay on PC-3 [7]; “Not Active” in the assay on HCT-116 [8]; “Not Active” in the assay on NCI-H727 [9]; 4900 nM in [1]. Further, the IC50 in assay [4] is > 10000 nM; in [2], 35 nM.

In the case of `Cc1cccc(NC(=O)Nc2cccc3c2C2CC4(CCN2C3=O)SCCS4)n1` (configuration not stated), the Ratio IC50 in assay [3] is > 5. The IC50 in assay [2] was found to be 2000 nM.

As for `Cc1cccnc1NC(=O)Nc1cccc2c1C1CC3(CCN1C2=O)OCCO3` (configuration not stated), in [3], the Ratio IC50 was 5. The IC50 in assay [2] was 610 nM.

`Cc1cnc(NC(=O)Nc2cccc3c2C2CC4(CCN2C3=O)SCCS4)cn1` (configuration not stated): the IC50 with Caco-2 [10] is 500 nM; in the assay with HCT-116 [11], 200 nM; in the assay with NCI-H727 [12], 800 nM; in the assay “cells” it was 300 nM; in the assay with PC-3 [13], 400 nM; in the assay with MDA-MB-231 [14], 400 nM. The IC50 in assay [2] stood at 55 nM.

As for `O=C(Nc1ccccn1)Nc1cccc2c1[C@@H]1C[C@H](O)CCN1C2=O`, in assay [1], the IC50 came out at 2100 nM.

For the compound `CO[C@@H]1CCN2C(=O)c3cccc(NC(=O)Nc4cccc(C)n4)c3[C@@H]2C1` (relative stereo), the Ratio IC50 in [3] turned out to be 13.4. Moreover, the IC50 is 4300 nM in assay [1], > 10000 nM in assay [4] and 320 nM in [2].

`Cc1cccc(NC(=O)Nc2cccc3c2C2CC4(CCN2C3=O)OCCO4)n1` (configuration not stated): the Ratio IC50 in assay [3] is > 10. Also, the IC50 in assay [2] came to 920 nM.

Turning to `O=C(Nc1ccccn1)Nc1cccc2c1C1CC3(CCN1C2=O)SCCS3` (configuration not stated), the Ratio IC50 in assay [3] is 7.2. Moreover, the IC50 in assay [2] came out at 33 nM.

Consider `O=C(Nc1cnccn1)Nc1cccc2c1C1CC3(CCN1C2=O)SCCS3` (configuration not stated), for which the half-maximal inhibitory concentration (IC50) with Caco-2 [10] amounted to 500 nM; with HCT-116 [11], 100 nM; in the assay on NCI-H727 [12], 400 nM; in “cells” it was 100 nM; in the assay on PC-3 [13], 600 nM; in the assay on MDA-MB-231 [14], 150 nM. Moreover, in assay [2], the IC50 was 44 nM.

For the compound `Cc1cccc(NC(=O)Nc2cccc3c2[C@@H]2C[C@H](O)CCN2C3=O)n1`, the IC50 entry was “Not Active” in the assay on MDA-MB-231 [5]; “Not Active” with Caco-2 [6]; “Not Active” in the assay on PC-3 [7]; “Not Active” in the assay on HCT-116 [8]; “Not Active” with NCI-H727 [9]; 1000 nM in assay [1].

As to `CO[C@@H]1CCN2C(=O)c3cccc(NC(=O)Nc4cc(C)ccn4)c3[C@@H]2C1` (relative stereo), the IC50 in the assay on Caco-2 [10] was found to be 500 nM; in the assay on HCT-116 [11], 30 nM; in the assay with NCI-H727 [12] it was 400 nM; in “cells”, 100 nM; with PC-3 [13] it was 400 nM; in assay [1], 320 nM. Moreover, the IC50 in assay [4] was > 10000 nM; in the assay on MDA-MB-231 [14], 300 nM; in assay [2], 32 nM. Further, the Ratio IC50 in assay [3] came to 10.

Turning to `O=C(Nc1cnccn1)Nc1cccc2c1[C@@H]1C[C@H](O)CCN1C2=O` (relative stereo), the IC50 entry in the assay on MDA-MB-231 [5] is “Not Active”; with Caco-2 [6], “Not Active”; in the assay with PC-3 [7], “Not Active”; in the assay with HCT-116 [8], “Not Active”; in the assay on NCI-H727 [9] it was “Not Active”; in assay [1] it was 84 nM. In addition, the IC50 was > 10000 nM in assay [4] and 32 nM in assay [2].

On to `CO[C@@H]1CCN2C(=O)c3cccc(NC(=O)Nc4ccn(C)n4)c3[C@@H]2C1` (relative stereo), for which the values for the IC50 in [1] and in assay [4] were 2300 nM and > 10000 nM, respectively.

`CO[C@@H]1CCN2C(=O)c3cccc(NC(=O)Nc4cnc(C)cn4)c3[C@@H]2C1` (relative stereo): in [3], the Ratio IC50 amounted to 10. In addition, the IC50 is 320 nM in assay [1], > 10000 nM in [4] and 140 nM in assay [2].

For the compound `Cc1cccnc1NC(=O)Nc1cccc2c1[C@@H]1C[C@H](O)CCN1C2=O` (relative stereo), the IC50 in assay [1] was 630 nM.
